Data on two compounds can be found in paper PMC9124818 (Pharmacology Research & Perspectives, 2022).

Molecules are shown by their SMILES. Where “and” joins values, the source holds several entries; their conditions need not be identical. Identical values can stand only once. Like-named read-outs stand apart in the source and are kept apart here. A value given as a limit tells only on which side of the number the result lay.

Data set [1] has as its target T1, OCT2 (Homo sapiens, UniProt O15244).
T1 construct: host or cells: HEK293
T1 sequence (O15244 1-555): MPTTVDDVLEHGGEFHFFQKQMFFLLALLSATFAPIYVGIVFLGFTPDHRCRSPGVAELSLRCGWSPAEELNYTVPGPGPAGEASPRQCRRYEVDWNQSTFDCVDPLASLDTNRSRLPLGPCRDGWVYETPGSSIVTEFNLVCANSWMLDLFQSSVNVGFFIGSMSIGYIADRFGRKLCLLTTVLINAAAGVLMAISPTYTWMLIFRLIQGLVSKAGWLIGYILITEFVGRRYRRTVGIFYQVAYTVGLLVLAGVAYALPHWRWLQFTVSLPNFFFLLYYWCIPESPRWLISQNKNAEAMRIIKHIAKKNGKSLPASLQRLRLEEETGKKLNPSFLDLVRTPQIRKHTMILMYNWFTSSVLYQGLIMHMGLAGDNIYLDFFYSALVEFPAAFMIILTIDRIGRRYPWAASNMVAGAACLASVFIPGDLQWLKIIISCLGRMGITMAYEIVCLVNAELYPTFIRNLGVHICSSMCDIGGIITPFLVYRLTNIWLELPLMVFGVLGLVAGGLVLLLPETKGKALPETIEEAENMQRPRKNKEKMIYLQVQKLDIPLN
As to the kind of experiment: Transporter inhibition, uptake of [14C]-metformin in HEK293 cells. It counts as in vitro ADME. Particulars: probe [14C]-metformin 10 μM. The text has this:
Cells were then washed, lysed with scintillation cocktail, and analyzed for the probe substrate with a MicroBeta scintillation counter (PerkinElmer, Hopkinton, MA). Transcellular transporter assay conditions are described in Supplemental Table 1. Calculation of IC50 values was based on bidirectional permeability of probe substrate with and without the inhibitor in MDCKII cells expressing BCRP and in Caco‐2 cells expressing P‐gp, and transporter‐dependent uptake of probe substrate in HEK293 cells expressing all other transporters (Supplemental Table 1).
The transporter-specific uptake of the probe substrate in cells was determined by subtracting the accumulation in the control cells from the accumulation in the transporter-expressing cells.

The test system of data set [2] is cultured human hepatocytes. Description: Cytotoxicity: LDH release and microscopic evaluation. It counts as cell-based. The note with it: for hepatocyte morphology: up to 40 μM FFA or 50 μM nFFA for 3 consecutive days; for LDH release: up to 40 μM FFA or 50 μM nFFA, all three hepatocyte cultures. The method, then:
Data were processed with KC4 Signature software (version 3.4, Rev 21, BioTek Instruments, Inc.) and graphed with Microsoft Excel 2003 (Microsoft Corp.). Percent LDH release was calculated based on the following equations: […]

For data set [3], the target named is CYP2C9 (Homo sapiens, UniProt P11712). As to the kind of experiment: Direct CYP450 inhibition in human liver microsomes (diclofenac 4'-hydroxylation).
From the text: A mixed‐gender pool of 200 individual human liver microsomal samples was used.
(§1) This LIMS utilizes the Levenberg-Marquardt algorithm to perform nonlinear regression fitting of the data to the following 4-parameter sigmoidal-logistic IC50 equation:
(§2) As percent of control values are utilized, the Min is set to 0 and the Max is set to 100 (or other values, as appropriate). […] Therefore, when an IC50 value falls outside the concentration range studied, the IC50 values are reported to be greater than the highest concentrations of test article evaluated.
The target of data set [4] is CYP2D6 (Homo sapiens, UniProt P10635). Description: Direct CYP450 inhibition in human liver microsomes (dextromethorphan O-demethylation). Particulars: for Inhibition (%): direct inhibition, FFA up to 60 µM, nFFA up to 100 µM; for Ah (guidance term): mechanistic static model, Supplemental Table 2; for Basic model: R1: R1 = 1 + (Imax,u/Ki,u).
Method: Microsomes from non‐transplantable human livers were prepared and characterized as outlined previously.[25], [26] A mixed‐gender pool of 200 individual human liver microsomal samples was used. Substrate concentrations and incubation conditions for determination of the kinetic constant (S50 or Km) used to select marker substrate concentrations were previously determined.[24]
Summary data are expressed as percent of control and mean ± standard deviation (SD) or standard error of the mean (SEM), as appropriate. Individual values from inhibition studies were processed with the laboratory information management system (LIMS) Galileo v3.3 (Thermo Fisher Scientific), which was used to calculate IC50 values from a four‐parameter logistic regression applied to percent inhibition versus concentration values. […] Based on FDA guidance for metabolism‐ and transporter‐mediated DDI studies,[15] basic kinetic models for transporter inhibition, CYP450 inhibition, and CYP450 induction were employed to calculate R, R1, and R3 values, respectively, and were compared to the respective predetermined threshold values listed in the guidance document.[15] […] Plasma protein binding data were used to estimate input parameters for fraction unbound to plasma proteins in the mechanistic static model (Supplemental Table 2). The fraction absorbed was assumed to be 100%, yielding the highest possible portal concentrations. […] Assays were performed in duplicate or triplicate according to previously published reports. Statistical analysis for replicates was not possible with n = 2 sample sizes.
as §1, §2
A short description of data set [5]: Plasma protein binding, Rapid Equilibrium Device. It counts as in vitro ADME. The note with it: pooled rat or dog plasma, pH 7.4, range. The method, then:
In vitro plasma protein binding was then determined by using the Rapid Equilibrium Device (RED) with a molecular weight cutoff of 8 kDa (Thermo Fisher Scientific, Inc., Waltham, MA). […] The internal standard was niflumic acid. […] Protein binding was determined by adding a 300‐μL aliquot of the test sample or the control sample to the sample chamber of the RED and adding a 500‐μL aliquot of PBS (pH 7.4) to the buffer chamber. The device unit was sealed and incubated at 37°C for 4 h with gentle shaking (~750 rpm). After dialysis, three aliquots of the test samples (50 μL) were collected from both sample and buffer chambers and were mixed with 50 μL of methanol as “donor samples” and “acceptor samples,” respectively. […] A detailed description of the LC‐MS/MS process can be found in the Supplemental Material. Supernatant fractions were analyzed by LC‐MS/MS using an Acquity Ultra Performance Liquid Chromatography system with ethylene bridged hybrid (BEH) C18 columns (2.1 × 50 mm, 1.7 µm; Waters Corporation; Milford, MA) coupled to an API4000 mass spectrometer (AB Sciex). […] Samples were prepared in triplicate and were dialyzed for 4 h. […] Protein binding was calculated as follows: Proteinbindingratio%=100‐Unboundratio%, where Unboundratio%=AcceptorSampleConcentration/DonorSampleConcentration.

Sequence of CYP2C9 (P11712 whole entry): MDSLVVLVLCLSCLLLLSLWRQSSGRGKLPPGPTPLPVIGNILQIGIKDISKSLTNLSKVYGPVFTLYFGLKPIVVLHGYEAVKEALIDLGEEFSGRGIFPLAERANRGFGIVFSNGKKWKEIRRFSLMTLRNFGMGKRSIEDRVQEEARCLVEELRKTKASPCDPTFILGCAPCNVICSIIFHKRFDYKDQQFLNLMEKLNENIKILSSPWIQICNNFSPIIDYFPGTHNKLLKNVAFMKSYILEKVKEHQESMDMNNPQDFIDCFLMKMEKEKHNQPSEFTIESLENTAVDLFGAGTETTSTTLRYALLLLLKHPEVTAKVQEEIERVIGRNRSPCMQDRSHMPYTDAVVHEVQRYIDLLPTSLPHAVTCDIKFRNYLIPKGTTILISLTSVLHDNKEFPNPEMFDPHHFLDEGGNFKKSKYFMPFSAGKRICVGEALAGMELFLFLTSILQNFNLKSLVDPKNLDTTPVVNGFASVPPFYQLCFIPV
Sequence of CYP2D6 (P10635 whole entry): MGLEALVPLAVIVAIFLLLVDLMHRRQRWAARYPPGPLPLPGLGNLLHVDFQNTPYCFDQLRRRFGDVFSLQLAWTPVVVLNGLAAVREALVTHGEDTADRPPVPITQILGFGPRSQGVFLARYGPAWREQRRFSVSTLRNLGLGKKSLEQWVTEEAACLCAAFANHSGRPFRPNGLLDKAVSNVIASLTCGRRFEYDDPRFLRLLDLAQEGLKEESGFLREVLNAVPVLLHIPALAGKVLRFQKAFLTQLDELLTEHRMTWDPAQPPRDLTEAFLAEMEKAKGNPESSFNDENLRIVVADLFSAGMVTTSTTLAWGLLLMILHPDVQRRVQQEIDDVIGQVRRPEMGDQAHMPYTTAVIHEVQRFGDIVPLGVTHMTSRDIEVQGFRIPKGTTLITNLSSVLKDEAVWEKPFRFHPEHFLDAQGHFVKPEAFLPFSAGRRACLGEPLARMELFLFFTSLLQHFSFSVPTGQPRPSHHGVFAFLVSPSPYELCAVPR

`CC(N)Cc1cccc(C(F)(F)F)c1.Cl` (stereo not shown) [nFFA, [1‐(3‐trifluoromethyl)phenyl]propan‐2‐amine hydrochloride]: the IC50 in data set [1] is 5.21 µM and 5.2 µM. In addition, in data set [2], the hepatocyte morphology result is given as “No morphological changes” and the LDH release is given as at most 13.8 % positive control. Moreover, in data set [3] (direct inhibition, human liver microsomes, substrate diclofenac), the IC50 was over 100 µM. In data set [3] (substrate diclofenac), the “Basic model: Potential for clinical inhibition” value is given as “No (Potential to inhibit if R1 ≥ 1.02)” and the “Static mechanistic model: Potential for clinical inhibition” value is recorded as “No (Potential to inhibit if AUCR ≥ 1.25)”. It took 16 ± 1 µM to reach half-maximal inhibition in data set [4] (direct inhibition (no preincubation), human liver microsomes, substrate dextromethorphan) (IC50). Moreover, in data set [4] (substrate dextromethorphan), the “Inhibition (%)” value is 82%, the “Basic model: Potential for clinical inhibition” value was “No (Potential to inhibit if R1 ≥ 1.02)”, the “Static mechanistic model: Potential for clinical inhibition” value is listed as “No (Potential to inhibit if AUCR ≥ 1.25)” and the “Basic model: R1” value was 1.01. The “Ah (guidance term)” value in data set [4] was 0.988. In addition, the Ki in data set [4] (read-out: Ki, u, IC50 divided by 2, assumes [S] = Km, adjusted for estimated unbound fraction in microsomes) was 7.86 µM.

Regarding `CCNC(C)Cc1cccc(C(F)(F)F)c1` (racemic) [FFA, (RS)‐ethyl(α‐methyl‐3‐trifluoromethylphenethyl)amine, reference compound], in data set [2], the hepatocyte morphology result was “No morphological changes” and the LDH release is reported as at most 8.5 % positive control. In addition, the IC50 in data set [3] is over 60 µM. Moreover, the “Inhibition (%)” value in data set [3] (direct inhibition, substrate diclofenac, FFA up to 60 µM, nFFA up to 100 µM) is given as 2.4%. Moreover, in data set [3] (substrate diclofenac), the “Basic model: Potential for clinical inhibition” value is listed as “No (Potential to inhibit if R1 ≥ 1.02)” and the “Static mechanistic model: Potential for clinical inhibition” value was “No (Potential to inhibit if AUCR ≥ 1.25)”. The “Basic model: R1” value in data set [3] (substrate diclofenac, R1 = 1 + (Imax,u/Ki,u)) amounted to 1.01. The fraction unbound at 4 h in data set [5] fell in the range of 0.378 to 0.538. Moreover, in data set [4], the IC50 stood at 4.7 ± 0.2 µM; the affinity, expressed as Ki, was 2.17 µM; the “Ah (guidance term)” value is reported as 0.867. In data set [4] (substrate dextromethorphan), the “Inhibition (%)” value stood at 90%, the “Basic model: Potential for clinical inhibition” value was “Yes (Potential to inhibit if R1 ≥ 1.02)”, the “Static mechanistic model: Potential for clinical inhibition” value is “No (Potential to inhibit if AUCR ≥ 1.25)” and the “Basic model: R1” value is reported as 1.07.
